Results from article PMC7600788, “Sequence Permutation Generates Peptides with Different Antimicrobial and Antibiofilm Activities” (Pharmaceuticals, 2020).
No end group written: not given here.

Key:
K. pneumonia ATCC 13883 = conditions: cited from earlier work
From the text: Table 2 Antibacterial activities of the WW peptides against various bacteria. | column: Minimal Inhibitory Concentration (MIC, μM) / KP ^a

E. faecium VRE = format: cell-based; conditions: VRE
Procedure: (§1) The antimicrobial activity spectrum of the WW peptide series was performed on a panel of Gram-positive and -negative bacteria using the standard broth micro-dilution method with minor modifications as described. […] There was a small change in the case of Pseudomonas aeruginosa and Acinetobacter baumannii up to two-fold. Four-fold changes were found for Staphylococcus aureus, Staphylococcus epidermidis, Escherichia coli, and Bacillus subtilis. However, we observed over eight-fold MIC changes for Klebsiella pneumoniae and vancomycin-resistant enterococcus (VRE). […] We also observed more than eight-fold changes in minimal bacterial killing concentrations.
(§2) The antibacterial activity of peptides was evaluated using a standard broth microdilution protocol with minor modifications as previously described. In brief, logarithmic phase bacterial cultures (i.e., optical density at 600 nm ≈ 0.5) were diluted to OD600~0.001 and partitioned into a 96-well polystyrene microplate at 90 μL per well. After treatment with 10 μL of peptide solutions two-fold diluted to various concentrations, microplates were incubated at 37 °C overnight and read on a ChroMate 4300 Microplate Reader at 630 nm (GMI, Ramsey, MN). […] Minimal bactericidal concentration (MBC) was determined by plating the clear wells at MIC or above. The peptide concentration that caused no bacterial growth on the petri dish is MBC.

E. coli ATCC 25922 = experiment: Propidium iodide membrane permeation assay; format: cell-based, Escherichia coli; conditions: peptide 3.1 µM, read every 5 min for 2 h
Procedure: Although not general, cationic antimicrobial peptides frequently target bacterial membranes. A fluorescence-based assay was performed for the determination the membrane active nature of peptides. A rapid increase in the fluorescence was detected as a consequence of peptide treatment at 3.1 µM, indicating membrane damage (Figure 3).
The experiment was performed as previously described with minor modifications. Serially diluted 10× peptides (10 μL each well) were created in 96-well microtiter plates. Propidium iodide (2 μL) at a fixed concentration of 20 μM was added to each well followed by 88 μL of the S. aureus USA300 or E. coli ATCC 25922 culture (a final OD600 ~0.1 in PBS). The plate was incubated at 37 °C with continuous shaking at 100 rpm in a FLUOstar Omega (BMG LABTECH Inc, Cary, NC, USA) microplate reader. The fluorescence from the plate was read every 5 min for a total duration of 2 h with excitation and emission wavelengths of 584 and 620 nm, respectively. Data were analyzed using the MARS data analysis software provided by the manufacturer and representative plots were made using the GraphPad Prism software (version: 7.0).

A. baumannii B28-16 = format: cell-based, Acinetobacter baumannii; conditions: B28-16
Procedure: as §1, §2

Sequence: RKIWWWWL [WW295]
- Minimal Inhibitory Concentration (MIC), KP (K. pneumonia ATCC 13883): 3.1 to 6.2 µM
- Minimal Inhibitory Concentration (MIC), VRE (E. faecium VRE): 6.25 µM
- propidium iodide fluorescence buildup (membrane permeation) (E. coli ATCC 25922): steady fluorescence buildup
- Minimal Inhibitory Concentration (MIC), AB (A. baumannii B28-16): 6.25 to 12.5 µM
